Measurements taken from publication PMC6934184, “Selective DNA-PKcs inhibition extends the therapeutic index of localized radiotherapy and chemotherapy” (The Journal of Clinical Investigation, 2019).

Biological target: T1, FYN (Homo sapiens, UniProt P06241)
T1 construct: purchased Thermo Fisher Scientific (Life Technologies) SelectScreen
Experiment: SelectScreen Z'LYTE
Format: biochemical
Method in brief: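 NU5455 was profiled across the SelectScreen Broad panel of kinase activity and binding assays. Z'LYTE reactions such as CSF1R ran at apparent Km ATP, while the Adapta CAMK1 assay used ATP listed as 10. Values are given as percent.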

T1 sequence (P06241 whole entry): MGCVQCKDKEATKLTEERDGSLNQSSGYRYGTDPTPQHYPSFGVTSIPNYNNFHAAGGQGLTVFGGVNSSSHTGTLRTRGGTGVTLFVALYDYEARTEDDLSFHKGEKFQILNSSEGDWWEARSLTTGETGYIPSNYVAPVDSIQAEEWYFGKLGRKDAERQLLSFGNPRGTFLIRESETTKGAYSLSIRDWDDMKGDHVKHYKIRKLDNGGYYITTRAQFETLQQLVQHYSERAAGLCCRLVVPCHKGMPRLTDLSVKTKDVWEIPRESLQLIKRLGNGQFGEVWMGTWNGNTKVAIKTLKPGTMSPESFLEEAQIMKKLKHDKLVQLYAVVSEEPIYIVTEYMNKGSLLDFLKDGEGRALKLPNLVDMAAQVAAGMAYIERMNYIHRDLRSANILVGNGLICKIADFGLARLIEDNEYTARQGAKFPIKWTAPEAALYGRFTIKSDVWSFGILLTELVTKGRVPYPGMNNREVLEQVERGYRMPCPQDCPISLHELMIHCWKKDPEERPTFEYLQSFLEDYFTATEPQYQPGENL

CN(C(=O)CN1CCOCC1)c1ccc2sc3c(-c4cccc5c(=O)cc(N6CC7CCC(C6)O7)oc45)cccc3c2c1 [NU5455]
inhibition at 1 µM: 8.3%
